Results from patent US20070010671A1, “Novel quinazoline derivatives and methods of treatment related to the use thereof” (priority 2003, published 2007).

The molecules below were run against MCH receptor (Homo sapiens, UniProt Q99705) (assay: High throughput functional screening FLIPR/FDSS6000: inhibition of MCH-evoked intracellular Ca2+ changes). Settings: class by percent of control at 10^-7 M or by IC50; read-out: class.
Assay type: cell-based
Outline: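 In a kinetic calcium-flux format, compounds were tested at various concentrations against 50 nM MCH. Fluo4-loaded cells expressing a constitutively active, non-endogenous receptor were imaged at 488/530 nm for 290 s after agonist addition.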
An IC50 of 50 to 200 nM was found for CN(C)c1nc(N[C@H]2CC[C@@H](NC(=O)Nc3ccc(Br)cc3)CC2)nc2ccccc12 [compound 12, N-(4-bromophenyl)-N′-(cis-4-{[4-(dimethylamino)quinazolin-2-yl]amino}cyclohexyl)urea] in this work. An IC50 of under 50 nM was found for CCCCNC(=O)N[C@H]1CC[C@@H](Nc2nc(N(C)C)c3ccccc3n2)CC1 [compound 13, N-butyl-N′-(cis-4-{[4-(dimethylamino)quinazolin-2-yl]amino}cyclohexyl)urea] in this work. An IC50 of over 200 nM was found for CN(C)c1nc(N[C@H]2CC[C@@H](NC(=O)Nc3cccc(Cl)c3)CC2)nc2ccccc12 [compound 14] in this work. An IC50 of over 200 nM was found for CN(C)c1nc(N[C@H]2CC[C@@H](NC(=O)Nc3ccc(Cl)cc3)CC2)nc2ccccc12 [compound 15] in this work. An IC50 of 50 to 200 nM was found for CN(C)c1nc(N[C@H]2CC[C@@H](NC(=O)NC3CCCCC3)CC2)nc2ccccc12 [compound 16, N-cyclohexyl-N′-(cis-4-{[4-(dimethylamino)quinazolin-2-yl]amino}cyclohexyl)urea] in this work. An IC50 of over 200 nM was found for CN(C)c1nc(N[C@H]2CC[C@@H](NC(=O)Nc3cccc(C#N)c3)CC2)nc2ccccc12 [compound 17] in this work. An IC50 of under 50 nM was found for CN(C)c1nc(N[C@H]2CC[C@@H](NC(=O)Nc3ccccc3Cl)CC2)nc2ccccc12 [compound 18, N-(2-chlorophenyl)-N′-(cis-4-{[4-(dimethylamino)quinazolin-2-yl]amino}cyclohexyl)urea] in this work. An IC50 of under 50 nM was found for Cc1cccc(C)c1NC(=O)N[C@H]1CC[C@@H](Nc2nc(N(C)C)c3ccccc3n2)CC1 [compound 19, N-(cis-4-{[4-(dimethylamino)quinazolin-2-yl]amino}cyclohexyl)-N′-(2,6-dimethylphenyl)urea] in this work. An IC50 of over 200 nM was found for CN(C)c1nc(N[C@H]2CC[C@@H](NC(=O)Nc3ccc(Cl)c(Cl)c3)CC2)nc2ccccc12 [compound 20] in this work. An IC50 of under 50 nM was found for CN(C)c1nc(N[C@H]2CC[C@@H](NC(=O)Nc3ccc(F)cc3F)CC2)nc2ccccc12 [compound 21, N-(2,4-difluorophenyl)-N′-(cis-4-{[4-(dimethylamino)quinazolin-2-yl]amino}cyclohexyl)urea] in this work. An IC50 of 50 to 200 nM was found for CN(C)c1nc(N[C@H]2CC[C@@H](NC(=O)Nc3ccc(Cl)cc3Cl)CC2)nc2ccccc12 [compound 22, N-(2,4-dichlorophenyl)-N′-(cis-4-{[4-(dimethylamino)quinazolin-2-yl]amino}cyclohexyl)urea] in this work. An IC50 of over 200 nM was found for CN(C)c1nc(N[C@H]2CC[C@@H](NC(=O)Nc3cc(Cl)cc(Cl)c3)CC2)nc2ccccc12 [compound 23] in this work. An IC50 of over 200 nM was found for CN(C)c1nc(N[C@H]2CC[C@@H](NC(=O)Nc3cccc(Cl)c3Cl)CC2)nc2ccccc12 [compound 24] in this work. An IC50 of over 200 nM was found for CN(C)c1nc(N[C@H]2CC[C@@H](NC(=O)Nc3c(F)cccc3F)CC2)nc2ccccc12 [compound 25] in this work. An IC50 of over 200 nM was found for CN(C)c1nc(N[C@H]2CC[C@@H](NC(=O)Nc3cc(Cl)ccc3Cl)CC2)nc2ccccc12 [compound 26] in this work. An IC50 of under 50 nM was found for Cc1cccc(NC(=O)N[C@H]2CC[C@@H](Nc3nc(N(C)C)c4ccccc4n3)CC2)c1C [compound 27, N-(cis-4-{[4-(dimethylamino)quinazolin-2-yl]amino}cyclohexyl)-N′-(2,3-dimethylphenyl)urea] in this work. An IC50 of over 200 nM was found for CCOC(=O)CNC(=O)N[C@H]1CC[C@@H](Nc2nc(N(C)C)c3ccccc3n2)CC1 [compound 28] in this work. An IC50 of under 50 nM was found for CCOC(=O)c1cccc(NC(=O)N[C@H]2CC[C@@H](Nc3nc(N(C)C)c4ccccc4n3)CC2)c1 [compound 29, ethyl 3-({[(cis-4-{[4-(dimethylamino)quinazolin-2-yl]amino}cyclohexyl)amino]carbonyl}amino)benzoate] in this work. An IC50 of 50 to 200 nM was found for CCOC(=O)c1ccc(NC(=O)N[C@H]2CC[C@@H](Nc3nc(N(C)C)c4ccccc4n3)CC2)cc1 [compound 30, ethyl 4-({[(cis-4-{[4-(dimethylamino)quinazolin-2-yl]amino}cyclohexyl)amino]carbonyl}amino)benzoate] in this work. An IC50 of 50 to 200 nM was found for CCc1ccc(NC(=O)N[C@H]2CC[C@@H](Nc3nc(N(C)C)c4ccccc4n3)CC2)cc1 [compound 31, N-(cis-4-{[4-(dimethylamino)quinazolin-2-yl]amino}cyclohexyl)-N′-(4-ethylphenyl)urea] in this work. An IC50 of over 200 nM was found for CCNC(=O)N[C@H]1CC[C@@H](Nc2nc(N(C)C)c3ccccc3n2)CC1 [compound 32] in this work. An IC50 of under 50 nM was found for CCc1cccc(C)c1NC(=O)N[C@H]1CC[C@@H](Nc2nc(N(C)C)c3ccccc3n2)CC1 [compound 33, N-(cis-4-{[4-(dimethylamino)quinazolin-2-yl]amino}cyclohexyl)-N′-(2-ethyl-6-methylphenyl)urea] in this work. An IC50 of under 50 nM was found for CCOC(=O)C(CC(C)C)NC(=O)NC1CCC(Nc2nc(N(C)C)c3ccccc3n2)CC1 (stereo not drawn) [compound 34, ethyl N-{[(cis-4-{[4-(dimethylamino)quinazolin-2-yl]amino}cyclohexyl)amino]carbonyl}lucinate] in this work. An IC50 of over 200 nM was found for CN(C)c1nc(N[C@H]2CC[C@@H](NC(=O)Nc3ccc(F)c([N+](=O)[O-])c3)CC2)nc2ccccc12 [compound 35] in this work. An IC50 of under 50 nM was found for CN(C)c1nc(N[C@H]2CC[C@@H](NC(=O)Nc3ccc(F)cc3)CC2)nc2ccccc12 [compound 36, N-(cis-4-{[4-(dimethylamino)quinazolin-2-yl]amino}cyclohexyl)-N′-(4-fluorophenyl)urea] in this work. An IC50 of over 200 nM was found for CN(C)c1nc(N[C@H]2CC[C@@H](NC(=O)Nc3cccc(F)c3)CC2)nc2ccccc12 [compound 37] in this work. An IC50 of over 200 nM was found for CN(C)c1nc(N[C@H]2CC[C@@H](NC(=O)Nc3ccccc3F)CC2)nc2ccccc12 [compound 38] in this work. An IC50 of over 200 nM was found for CC(C)c1ccc(NC(=O)N[C@H]2CC[C@@H](Nc3nc(N(C)C)c4ccccc4n3)CC2)cc1 [compound 39] in this work. An IC50 of under 50 nM was found for C=C(C)c1cccc(C(C)(C)NC(=O)N[C@H]2CC[C@@H](Nc3nc(N(C)C)c4ccccc4n3)CC2)c1 [compound 40, N-(cis-4-{[4-(dimethylamino)quinazolin-2-yl]amino}cyclohexyl)-N′-[1-(3-isopropenylphenyl)-1-methylethyl]urea] in this work. An IC50 of over 200 nM was found for CC(C)NC(=O)N[C@H]1CC[C@@H](Nc2nc(N(C)C)c3ccccc3n2)CC1 [compound 42] in this work. An IC50 of 50 to 200 nM was found for COc1ccc(NC(=O)N[C@H]2CC[C@@H](Nc3nc(N(C)C)c4ccccc4n3)CC2)cc1 [compound 43, N-(cis-4-{[4-(dimethylamino)quinazolin-2-yl]amino}cyclohexyl)-N′-(4-methoxyphenyl)urea] in this work. An IC50 of over 200 nM was found for Cc1ccc(NC(=O)N[C@H]2CC[C@@H](Nc3nc(N(C)C)c4ccccc4n3)CC2)c([N+](=O)[O-])c1 [compound 44] in this work. An IC50 of 50 to 200 nM was found for COc1ccccc1NC(=O)N[C@H]1CC[C@@H](Nc2nc(N(C)C)c3ccccc3n2)CC1 [compound 45, N-(cis-4-{[4-(dimethylamino)quinazolin-2-yl]amino}cyclohexyl)-N′-(2-methoxyphenyl)urea] in this work. An IC50 of 50 to 200 nM was found for COc1cccc(NC(=O)N[C@H]2CC[C@@H](Nc3nc(N(C)C)c4ccccc4n3)CC2)c1 [compound 46, N-(cis-4-{[4-(dimethylamino)quinazolin-2-yl]amino}cyclohexyl)-N′-(3-methoxyphenyl)urea] in this work. An IC50 of under 50 nM was found for CSc1ccc(NC(=O)N[C@H]2CC[C@@H](Nc3nc(N(C)C)c4ccccc4n3)CC2)cc1 [compound 47, N-(cis-4-{[4-(dimethylamino)quinazolin-2-yl]amino}cyclohexyl)-N′-[4-(methylthio)phenyl]urea] in this work.
